Experimental data: patent US11274124B2, “Tubulysin analogues as anticancer agents and payloads for antibody-drug conjugates and methods of treatment therewith” (William Marsh Rice University, priority 2017, dated 2022)
Like-named read-outs stand apart in the source and are kept apart here.

What was measured:
[1] = system: MES SA (uterine sarcoma cell line); assay: In vitro cytotoxicity assay (CellTiter-Glo, 72 hours), MES SA; assay type: cell-based
[2] = system: HEK 293T (human embryonic kidney cancer cell line); assay: In vitro cytotoxicity assay (CellTiter-Glo, 72 hours), HEK 293T; assay type: cell-based
[3] = system: MES SA DX (MES SA cell line with marked multi-drug resistance); assay: In vitro cytotoxicity assay (CellTiter-Glo, 72 hours), MES SA DX
[4] = Homo sapiens, MES-SA, 72 h, read-out: MES SA, IC50
[5] = Homo sapiens, MES-SA, 72 h, read-out: MES SA, IC50 Value in nM
[6] = Homo sapiens, HEK-293T, 72 h, read-out: HEK 293T, IC50
[7] = Homo sapiens, HEK-293T, 72 h, read-out: HEK 293T, IC50 Value in nM
[8] = Homo sapiens, MES-SA, 72 h, read-out: MES SA DX, IC50
[9] = Homo sapiens, MES-SA, 72 h, read-out: MES SA DX, IC50 Value in nM

SMILES | IC50 ([1]; Table 2, 72 hours, CellTiter-Glo, read-out: MES SA, IC50 Value in nM) [nM] | IC50 ([2]; Table 2, 72 hours, CellTiter-Glo, read-out: HEK 293T, IC50 Value in nM) [nM] | IC50 ([3]; read-out: MES SA DX, IC50 Value in nM, Table 2, 72 hours, CellTiter-Glo) [nM] | IC50 [1, 4] [nM] | IC50 [1, 5] [nM] | IC50 [2, 6] [nM] | IC50 [2, 7] [nM] | IC50 [3, 8] [nM] | IC50 [3, 9] [nM] | cytotoxicities against the marked drug resistant cancer cell line MES SA DX (in words) [3]
CC[C@H](C)[C@H](NC(=O)[C@H]1CCCCN1C)C(=O)N(C)[C@H](C[C@@H](OC(C)=O)c1nc(C(=O)N[C@@H](Cc2ccccc2)C[C@H](C)C(=O)O)cs1)C(C)C [Tb1, N^14-desacetoxytubulysin H, reference compound] | 0.34 | 0.02 | > 10 |  |  |  |  |  |  | 
COC(=O)[C@H](C[C@H](Cc1ccccc1)NC(=O)c1csc([C@@H](C[C@H](C(C)C)N(C)C(=O)[C@@H](NC(=O)[C@H]2CCCCN2C)C(C)C)OC(C)=O)n1)N(C)C [Tb117, Methyl (2S)-4-{[(2-{1-acetoxy-4-methyl-3-[methyl(3-methyl-2-{[(1-methylpiperidin-2-yl)carbonyl]-amino}butanoyl)amino]pentyl}-1,3-thiazol-4-yl)carbonyl]amino}-2-(dimethylamino)-5-phenylpentanoate] |  |  |  | 0.099 | 0.099 | 0.059 | 0.059 | 4.63 | 4.63 | 
COC(=O)C(CC(Cc1ccccc1)NC(=O)c1csc([C@@H](CC(C(C)C)N(C)C(=O)[C@@H](NC(=O)[C@H]2CCCCN2C)C(C)C)OC(C)=O)n1)NC(=O)OCc1ccccc1 (stereo in doubt) [Tb116, Methyl(2R,4R)-4-[({2-[(1R,3S)-1-acetoxy-4-methyl-3-{methyl[(2S)-3-methyl-2-{[(1-methylpiperidin-2-yl)carbonyl]amino}butanoyl]amino}pentyl]-1,3-thiazol-4-yl}carbonyl)amino]-2-{[(benzyloxy)carbonyl]amino}-5-phenylpentanoate] |  |  |  | 0.007 | 0.007 | 0.003 | 0.003 | 6 | 6 | relatively potent (low nanomolar)
COC(=O)[C@@H](C)C[C@H](Cc1ccccc1)NC(=O)c1csc([C@@H](C[C@H](C(C)C)N(C)C(=O)[C@H](C)NC(=O)[C@H]2CCCCN2C)OC(C)=O)n1 [Tb89, Methyl (2S,4R)-4-[({2-[(1R,3R)-1-acetoxy-4-methyl-3-{methyl[(2S)-2-({[(2R)-1-methylpiperidin-2-yl]carbonyl}amino)propanoyl]amino}pentyl]-1,3-thiazol-4-yl}carbonyl)amino]-2-methyl-5-phenylpentanoate] |  |  |  |  | > 1000 |  | > 1000 |  | > 1000 | 
COC(=O)C12CC(NC(=O)c3csc([C@@H](C[C@H](C(C)C)N(C)C(=O)[C@@H](NC(=O)[C@H]4CCCCN4C)C4CC4)OC(C)=O)n3)(C1)C2 [Tb100, Methyl 3-{[(2-{1-acetoxy-3-[(cyclopropyl{[(1-methylpiperidin-2-yl)carbonyl]amino}acetyl)(methyl)-amino]-4-methylpentyl}-1,3-thiazol-4-yl)carbonyl]amino}bicyclo[1.1.1]pentane-1-carboxylate] |  |  |  |  | 15.2 |  | 16.5 |  | > 1000 | 
CC(C)[C@@H](C[C@@H](O)c1nc(C(=O)N[C@@H](Cc2ccccc2)C[C@H](C)C(=O)O)cs1)N(C)C(=O)[C@H](CC(F)(F)F)NC(=O)[C@H]1CCCN1C [Tb84, (2S,4R)-4-[({2-[(1R,3R)-1-Hydroxy-4-methyl-3-{methyl[(2S)-4,4,4-trifluoro-2-({[(2R)-1-methyl-pyrrolidin-2-yl]carbonyl}amino)butanoyl]amino}pentyl]-1,3-thiazol-4-yl}carbonyl)amino]-2-meth-yl-5-phenylpentanoic acid] |  |  |  |  | > 1000 |  | > 1000 |  | > 1000 | 
COC(=O)[C@@H](C)C[C@H](Cc1ccccc1)NC(=O)c1nc([C@@H](C[C@H](C(C)C)N(C)C(=O)[C@@H](NC(=O)[C@H]2CCCCN2)C(C)C)OC(C)=O)sc1C [Tb69, Methyl (2S,4R)-4-[({2-[(1R,3R)-1-acetoxy-4-methyl-3-{methyl[(2S)-3-methyl-2-{[(2R)-piperidin-2-ylcarbonyl]amino}butanoyl]amino}pentyl]-5-methyl-1,3-thiazol-4-yl}carbonyl)amino]-2-methyl-5-phenylpentanoate] |  |  |  |  | 30.8 |  | > 1000 |  | > 1000 | 
CCCCN1CCCC[C@@H]1C(=O)N[C@H](C(=O)N(C)[C@H](C[C@@H](OC(C)=O)c1nc(C(=O)N[C@@H](Cc2ccccc2)CC(CO)C(=O)OC)cs1)C(C)C)[C@@H](C)CC (stereo partly drawn) [Tb56, Methyl (4R)-4-[({2-[(1R,3R)-1-acetoxy-3-{[(2S,3S)-2-({[(2R)-1-butylpiperidin-2-yl]carbonyl}amino)-3-methylpentanoyl](methyl)amino}-4-methylpentyl]-1,3-thiazol-4-yl}carbonyl)amino]-2-(hydroxy-methyl)-5-phenylpentanoate] |  |  |  |  | > 1000 |  | > 1000 |  | > 1000 | 
COC(=O)[C@@H](C)C[C@H](Cc1ccccc1)NC(=O)c1nc([C@@H](C[C@H](C(C)C)N(C)C(=O)[C@@H](NC(=O)[C@H]2CC(=O)CCN2C)C(C)C)OC(C)=O)sc1C(C)C [Tb75, Methyl (2S,4R)-4-[({2-[(1R,3R)-1-acetoxy-4-methyl-3-{methyl[(2S)-3-methyl-2-({[(2R)-1-methyl-4-oxopiperidin-2-yl]carbonyl}amino)butanoyl]amino}pentyl]-5-isopropyl-1,3-thiazol-4-yl}carbonyl)-amino]-2-methyl-5-phenylpentanoate] |  |  |  |  | ≥ 400 |  | 127 |  | > 400 | 
CCCCN1CCCC[C@@H]1C(=O)N[C@H](C(=O)N(C)[C@H](C[C@@H](OC(C)=O)c1nc(C(=O)N[C@@H](Cc2cn(C)c3ccccc23)C[C@H](C)C(=O)OC)cs1)C(C)C)[C@@H](C)CC [Tb57, Methyl (2S,4R)-4-[({2-[(1R,3R)-1-acetoxy-3-{[(2S,3S)-2-({[(2R)-1-butylpiperidin-2-yl]carbonyl}-amino)-3-methylpentanoyl](methyl)amino}-4-methylpentyl]-1,3-thiazol-4-yl}carbonyl)amino]-2-methyl-5-(1-methyl-1H-indol-3-yl)pentanoate] |  |  |  |  | > 1000 |  | > 1000 |  | > 1000 | 
COC(=O)[C@H](CO)C[C@H](Cc1ccccc1)NC(=O)c1csc([C@@H](C[C@H](C(C)C)N(C)C(=O)[C@@H](NC(=O)[C@H]2CCCCN2C)C(C)C)OC(C)=O)n1 [Tb120, Methyl (2S,4R)-4-{2-[(1R,3R)-1-acetoxy-3-{(S)—N,3-dimethyl-2-[(R)-1-methylpiperidine-2-carboxamido]butanamido}-4-methylpentyl]thiazole-4-carboxamido}-2-(hydroxymethyl)-5-phenylpentanoate] |  |  |  | 0.059 | 0.059 | 0.039 | 0.039 | > 14 | > 14 | 
COC(=O)[C@@H](C)C[C@H](Cc1ccccc1)NC(=O)c1csc(CC[C@H](C(C)C)N(C)C(=O)[C@@H](NC(=O)[C@H]2CCCCN2C)C(C)C)n1 [PTb-D48] |  |  |  |  | > 1000 |  | > 1000 |  | > 1000 | 
CC(=O)O[C@H](C[C@H](C(C)C)N(C)C(=O)[C@@H](NC(=O)[C@H]1CCCCN1C)C(C)C)c1cccc(C(=O)N[C@@H](Cc2ccccc2)C[C@H](C)C(=O)O)n1 [Tb65, (2S,4R)-4-[({6-[(1R,3R)-1-Acetoxy-4-methyl-3-{methyl[(2S)-3-methyl-2-({[(2R)-1-methylpiperidin-2-yl]carbonyl}amino)butanoyl]amino}pentyl]pyridin-2-yl}carbonyl)amino]-2-methyl-5-phenylpentanoic acid] |  |  |  |  | 2.44 |  | 2.04 |  | 279 | 
COC(=O)[C@@H](C)C[C@H](Cc1ccccc1)NC(=O)c1csc([C@H](O)C[C@H](C(C)C)N(C)C(=O)[C@@H](NC(=O)[C@H]2CCCCN2C)C(C(F)(F)F)C(F)(F)F)n1 [Tb80, Methyl (2S,4R)-4-[({2-[(1R,3R)-1-hydroxy-4-methyl-3-{methyl[(2S)-4,4,4-trifluoro-2-({[(2R)-1-methylpiperidin-2-yl]carbonyl}amino)-3-(trifluoromethyl)butanoyl]amino}pentyl]-1,3-thiazol-4-yl}-carbonyl)amino]-2-methyl-5-phenylpentanoate] |  |  |  |  | > 1000 |  | > 1000 |  | > 1000 | 
COC(=O)C12C3C4C1C1C2C3C41NC(=O)c1csc([C@@H](C[C@H](C(C)C)N(C)C(=O)[C@@H](NC(=O)[C@H]2CCCCN2C)C2CC2)OC(C)=O)n1 (stereo partly drawn) [Tb99, Methyl 4-[({2-[(1R,3R)-1-acetoxy-3-{[(2S)-2-cyclopropyl-2-({[(2R)-1-methylpiperidin-2-yl]carbonyl}-amino)acetyl](methyl)amino}-4-methylpentyl]-1,3-thiazol-4-yl}carbonyl)amino]cubane-1-carboxylate] |  |  |  |  | > 1000 |  | > 1000 |  | > 1000 | 
COC(=O)[C@@H](C)C[C@H](Cc1ccccc1)NC(=O)c1csc([C@@H](C[C@H](C(C)C)N(C)C(=O)[C@@H](NC(=O)[C@H]2CCCCN2C)C(C(F)(F)F)C(F)(F)F)OC(C)=O)n1 [Tb79, Methyl (2S,4R)-4-[({2-[(1R,3R)-1-acetoxy-4-methyl-3-{methyl[(2S)-4,4,4-trifluoro-2-({[(2R)-1-meth-ylpiperidin-2-yl]carbonyl}amino)-3-(trifluoromethyl)butanoyl]amino}pentyl]-1,3-thiazol-4-yl}carbonyl)amino]-2-methyl-5-phenylpentanoate] |  |  |  |  | 39.1 |  | 36.4 |  | > 1000 | 
